This is an account of results in patent US20100010053A1, “COMPOUNDS” (priority 2008, published 2010).

SMILES strings stand for the structures.

In the first series the target is T1, human S1P1 receptor (EDG1) (Homo sapiens, UniProt P21453).
T1 construct: TEV protease site + Gal4-VP16 transcription factor (only in the Tango assay cells; not described for the GTPγS membranes); expressed in transfected cells; host or cells: rat hepatoma cells (membranes, GTPγS assay) or Tango EDG1-bla U2OS cells (Tango assay)
T1 sequence (P21453 whole entry, the tested form may be a part): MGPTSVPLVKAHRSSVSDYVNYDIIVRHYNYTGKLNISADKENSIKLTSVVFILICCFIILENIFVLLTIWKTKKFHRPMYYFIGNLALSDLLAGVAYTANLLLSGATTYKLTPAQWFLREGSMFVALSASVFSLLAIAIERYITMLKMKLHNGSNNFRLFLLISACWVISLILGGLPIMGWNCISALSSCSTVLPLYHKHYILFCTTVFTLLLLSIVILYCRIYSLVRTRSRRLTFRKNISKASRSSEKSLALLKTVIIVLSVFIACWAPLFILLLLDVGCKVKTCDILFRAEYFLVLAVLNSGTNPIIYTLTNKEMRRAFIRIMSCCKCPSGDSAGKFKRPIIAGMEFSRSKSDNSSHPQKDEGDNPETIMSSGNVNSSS
The series is described as follows: S1P1 GTPγS assay or S1P1 Tango assay (at least one of the above assays). To be noted: read-out: pEC50 in at least one of the above assays (converted). The format is cell-based. Here is the method:
For membrane preparations all steps were performed at 4° C. Rat hepatoma cells stably expressing the human S1P1 receptor or Rat Basophilic Leukaemia cells (RBL) stably expressing human S1P3 receptor were grown to 80% confluency before being harvested into 10 ml Phospho-Buffered Saline (PBS) and centrifuged at 1200 rpm for 5 minutes. After removal of the supernatant, the pellet was re-suspended and cells were homogenised within a glass Waring blender for 2 bursts of 15 secs in 200 mls of buffer (50 mM HEPES, 1 mM leupeptin, 25 μg/ml bacitracin, 1 mM EDTA, 1 mM PMSF, 2 μM pepstatin A). The blender was plunged into ice for 5 mins after the first burst and 10-40 mins after the final burst to allow foam to dissipate. The material was then spun at 500 g for 20 mins and the supernatant spun for 36 mins at 48,000 g. The pellet was resuspended in the same buffer as above but without PMSF and pepstatin A. The material was then forced through a 0.6 mm needle, made up to the required volume, (usually ×4 the volume of the original cell pellet), aliquoted and stored frozen at −80° C. S1P1 GTPγS assay Human S1P1 rat hepatoma membranes (1.5 μg/well) were adhered to a wheatgerm agglutinin (WGA)-coated scintillation proximity assay (SPA) beads (0.125 mg/well) in assay buffer (HEPES 20 mM, MgCl2 10 mM, NaCl 100 mM and pH adjusted to 7.4 using KOH 5M, GDP 10 μM FAC (final assay concentration) and saponin 90 μg/ml FAC was also added).
After 30 minutes pre-coupling on ice the bead and membrane suspension was dispensed into a white Greiner polypropylene LV384-well plate (5 μl/well), containing 0.1 μl of the compound. 5 μl/well [^35S]-GTPγS (0.5 nM final radioligand conc) made up in assay buffer was then added to agonist plates. The final assay cocktail (10.1 μl) was then centrifuged at 1000 rpm for 5 minutes then read immediately on a Viewlux reader.
All test compounds were dissolved in DMSO at a concentration of 10 mM and were prepared in 100% DMSO using a 1 in 4 dilution step to provide 11 point dose response curves. The dilutions were transferred to the assay plates ensuring that the DMSO concentration was constant across the plate for all assays.
All data was normalized to the mean of 16 high and 16 low control wells on each plate. A four parameter curve fit was then applied.
Recombinant EDG1-bla/U2OS cells (contain the human Endothelial Differentiation Gene 1 (EDG1) linked to a TEV protease site and a Gal4-VP16 transcription factor stably integrated into the Tango GPCR-bla U2OS parental cell line) were suspended in assay medium (Invitrogen Freestyle Expression Medium) at a density of 312, 500 cells/ml. Add 100 μl/well of the assay medium to the cell-free control wells (column 12) and 100 μl/well of the cell suspension to the test compound wells (row 2-8, column 1-10), the unstimulated control wells (DMSO) (column 11), and stimulated control wells (S1P) (row 1, column 1-10) in a Corning black-well, clear bottom 96-well plate. Cells were incubated at 37° C., 5% CO2 for 44-48 h. Add 25 μl of 5× stock solution of test compounds in assay medium with 0.5% DMSO to the test compound wells, 25 μl of 5× stock solution of agonist (S1P) in assay medium with 0.5% DMSO to the stimulated compound wells, and 25 μl of 5× stock solution of 0.5% DMSO in assay medium to the unstimulated control and cell-free control wells.
After incubation at 37° C., 5% CO2 for 5 h, 25 μl of 6× substrate mixture (6 μl Solution A (1 mg LiveBLAzer™-FRET B/G substrate (CCF4-AM) in 912 μl DMSO) plus 60 μl Solution B plus 934 μl Solution C) was added to each well and incubate at room temperature for 2 h in dark. The plate was finally read on EnVision for two emission channels (460 nm and 530 nm).
All test compounds were dissolved in DMSO at a concentration of 10 mM and were prepared in 100% DMSO using a 1 in 5 dilution step to provide 10 point dose response curves. […]
As for `CC(C)Oc1ccc(-c2nc(-c3cccc4c(C(=O)NCCCC(=O)O)c[nH]c34)no2)cc1Cl` [Example 74, 4-({[7-(5-{3-chloro-4-[(1-methylethyl)oxy]phenyl}-1,2,4-oxadiazol-3-yl)-1H-indol-3-yl]carbonyl}amino)butanoic acid], the EC50 is < 1 nM.

On to `CC(C)Oc1ccc(-c2nc(-c3cccc4c(CCOCC(=O)O)cn(C)c34)no2)cc1Cl` [Example 79, ({2-[7-(5-{3-chloro-4-[(1-methylethyl)oxy]phenyl}-1,2,4-oxadiazol-3-yl)-1-methyl-1H-indol-3-yl]ethyl}oxy)acetic acid], for which the EC50 was < 10 nM.

For `CC(C)Oc1ccc(-c2nc(-c3cccc4c(C(=O)NCCC(=O)O)cn(C)c34)no2)cc1Cl` [Example 76, N-{[7-(5-{3-chloro-4-[(1-methylethyl)oxy]phenyl}-1,2,4-oxadiazol-3-yl)-1-methyl-1H-indol-3-yl]carbonyl}-β-alanine], the EC50 was < 1 nM.

In the case of `CC(C)Oc1ccc(-c2nc(-c3cccc4c(CCNC5(C(=O)O)CC5)cn(C)c34)no2)cc1Cl` [Example 68, 1-({2-[7-(5-{3-chloro-4-[(1-methylethyl)oxy]phenyl}-1,2,4-oxadiazol-3-yl)-1-methyl-1H-indol-3-yl]ethyl}amino)cyclopropanecarboxylic acid], the EC50 was < 10 nM.

As for `CC(C)Oc1ccc(-c2nc(-c3cccc4c(CCC(=O)O)c[nH]c34)no2)cc1C#N` [Example 3, 3-[7-(5-{3-Cyano-4-[(1-methylethyl)oxy]phenyl}-1,2,4-oxadiazol-3-yl)-1H-indol-3-yl]propanoic acid], the EC50 was < 1 nM.

`CC(C)Oc1ccc(-c2nc(-c3cccc4c(C[C@@H](C)C(=O)O)cn(C)c34)no2)cc1Cl` [Example 36, (2R)-3-[7-(5-{3-chloro-4-[(1-methylethyl)oxy]phenyl}-1,2,4-oxadiazol-3-yl)-1-methyl-1H-indol-3-yl]-2-methylpropanoic acid]: the EC50 is < 10 nM.

Turning to `CC(C)Oc1ccc(-c2nc(-c3cccc4c(C(=O)N(C)CCC(=O)O)c[nH]c34)no2)cc1Cl` [Example 75, N-{[7-(5-{3-chloro-4-[(1-methylethyl)oxy]phenyl}-1,2,4-oxadiazol-3-yl)-1H-indol-3-yl]carbonyl}-N-methyl-β-alanine], the EC50 was < 10 nM.

In the case of `CC(C)Oc1ccc(-c2nc(-c3ccc(F)c4c(CCC(=O)O)c[nH]c34)no2)cc1Cl` [Example 19, 3-[7-(5-{3-Chloro-4-[(1-methylethyl)oxy]phenyl}-1,2,4-oxadiazol-3-yl)-4-fluoro-1H-indol-3-yl]propanoic acid], the EC50 is < 10 nM.

As for `CC(C)Oc1ccc(-c2nc(-c3cc4[nH]cc(CCC(=O)O)c4cc3F)no2)cc1Cl` [Example 109, 3-[6-(5-{3-Chloro-4-[(1-methylethyl)oxy]phenyl}-1,2,4-oxadiazol-3-yl)-5-fluoro-1H-indol-3-yl]propanoic acid], the EC50 is < 1 nM.

With `CC(C)Cn1cc(CCC(=O)O)c2cccc(-c3noc(-c4ccc(OC(C)C)c(Cl)c4)n3)c21` [Example 30, 3-[7-(5-{3-chloro-4-[(1-methylethyl)oxy]phenyl}-1,2,4-oxadiazol-3-yl)-1-(2-methylpropyl)-1H-indol-3-yl]propanoic acid], the EC50 is ≥ 1000 nM.

In the case of `CC(C)Oc1ccc(-c2nc(-c3c(F)ccc4c(CCC(=O)O)cn(C)c34)no2)cc1Cl` [Example 104, 3-[7-(5-{3-Chloro-4-[(1-methylethyl)oxy]phenyl}-1,2,4-oxadiazol-3-yl)-6-fluoro-1-methyl-1H-indol-3-yl]propanoic acid], the EC50 was < 10 nM.

As to `CC(C)Oc1ccc(-c2nc(-c3ccc4[nH]c(CCC(=O)O)cc4c3)no2)cc1C#N` [Example 89, 3-[5-(5-{3-cyano-4-[(1-methylethyl)oxy]phenyl}-1,2,4-oxadiazol-3-yl)-1H-indol-2-yl]propanoic acid], the EC50 was < 10 nM.

Regarding `CC(C)Oc1ccc(-c2nc(-c3c(F)ccc4c(CCC(=O)O)cn(C)c34)no2)cc1C#N` [Example 106, 3-[7-(5-{3-Cyano-4-[(1-methylethyl)oxy]phenyl}-1,2,4-oxadiazol-3-yl)-6-fluoro-1-methyl-1H-indol-3-yl]propanoic acid], the EC50 was < 10 nM.

A further series has as its system circulating lymphocytes.
Assay: not given
As to conditions: animals and man; cited from earlier work.
Regarding `CCCCCCCCc1ccc(CCC(N)(CO)CO)cc1` [FTY720], the “effect on circulating lymphocytes” value is reported as “reduce circulating lymphocytes”.

Test system in the next series: not given
Assay: not given
To be noted: clinical studies, first 24 hours of treatment; cited from earlier work.
Regarding `CCCCCCCCc1ccc(CCC(N)(CO)CO)cc1` [FTY720], the bradycardia entry is given as “results in bradycardia”.
